Legend:
kale 'Red Russian' [1] = assay: Visual injury of kale after insecticide, fungicide, PGRs, safeners (Example 4)
Protocol: (§1) Greenhouse and laboratory studies were conducted to ascertain the tolerance and nutritional quality differences following postemergence applications of the insecticide chlorpyrifos, the fungicide chlorothalonil, the PGRs mepiquat-chloride and paclobutrazol, and the safeners napthalic anhydride and isoxadifen-ethyl on kale ‘Red Russian’ and basil ‘Genovese’. Visual injury was rated based on general phytotoxicity, chlorosis, and visual stunting and each measurement was based on a percent scale from 0 to 100 where 0 equals no visual response and 100 equals complete plant death. Kale and basil were both harvested approximately 4 weeks after treatments and plants were pooled over replicates for content analysis of crude protein, crude amino acid content, acid detergent fiber, neutral detergent fiber, total fatty acids, and/or key mineral content (including Na, Ca, P, Mg, K, Fe, Mn, Zn, and Cu). In addition, the amounts of key individual amino acids (aspartic acid, threonine, glutamic acid, proline, glycine, cysteine, valine, leucine, isoleucine, methionine, and lysine) and composite classifications of fatty acid (saturated fatty acids, monounsaturated fatty acids, polyunsaturated fatty acids) were also analyzed from these sub-samples for kale (Tables 10-14).

kale ‘Red Russian’ = assay: Yield, fresh weight of kale after insecticide, fungicide and PGRs (Example 4, Table 12); type: in vivo; details: 28 DA-A, Untreated Check 106.9
Protocol: as §1

basil ‘Genovese’ = assay: Yield, fresh weight of basil after insecticide, fungicide, PGRs and safeners (Example 4, Table 10); type: in vivo; details: DA-A, check 31.8
Protocol: as §1

basil 'Genovese' = assay: Content analysis of basil: protein, minerals (Example 4, Tables 10-11); type: in vivo; details: 28 DA-A, rates g ai/ha: chlropyrifos 1120, chlorothalonil 2630, paclobutrazol 3.23, mepiquat-chloride 12.3, Isoxadifen 8, Napthalic anhydride 264, + NIS 0.25 % v/v
Protocol: as §1

kale 'Red Russian' [2] = assay: Content analysis of kale: protein, amino acids, fiber, fatty acids, minerals (Example 4, Tables 12-14); type: in vivo; details: 28 DA-A
Protocol: as §1

[3] = 7 DA-A, rates g ai/ha: chlropyrifos 1120, chlorothalonil 2630, paclobutrazol 3.23, mepiquat-chloride 12.3, + NIS 0.25 % v/v
[4] = 7 DA-A, rates g ai/ha: chlropyrifos 3370, chlorothalonil 7900, paclobutrazol 9.7, mepiquat-chloride 37, + NIS 0.25 % v/v
[5] = 14 DA-A, rates g ai/ha: chlropyrifos 1120, chlorothalonil 2630, paclobutrazol 3.23, mepiquat-chloride 12.3, + NIS 0.25 % v/v
[6] = 14 DA-A, rates g ai/ha: chlropyrifos 3370, chlorothalonil 7900, paclobutrazol 9.7, mepiquat-chloride 37, + NIS 0.25 % v/v
[7] = 28 DA-A, rates g ai/ha: chlropyrifos 1120, chlorothalonil 2630, paclobutrazol 3.23, mepiquat-chloride 12.3, + NIS 0.25 % v/v
[8] = 28 DA-A, rates g ai/ha: chlropyrifos 3370, chlorothalonil 7900, paclobutrazol 9.7, mepiquat-chloride 37, + NIS 0.25 % v/v
[9] = rates g ai/ha: chlropyrifos 1120, chlorothalonil 2630, paclobutrazol 3.23, mepiquat-chloride 12.3, + NIS 0.25 % v/v
[10] = first-listed rate g ai/ha: chlropyrifos ###, chlorothalonil ###, paclobutrazol 3.2, mepiquat-chloride 12, + NIS 0.3 % v/v

## CCOP(=S)(OCC)Oc1nc(Cl)c(Cl)cc1Cl [chlropyrifos]
Kale 'Red Russian' [1]; [3]
  Phytotoxicity Chlorosis: 1%
  Phytotoxicity General: 14%
  Phytotoxicity Stunting: 9%
Kale 'Red Russian' [1]; [4]
  Phytotoxicity Chlorosis: 0%
  Phytotoxicity General: 13%
  Phytotoxicity Stunting: 6%
Kale 'Red Russian' [1]; [5]
  Phytotoxicity Chlorosis: 15%
  Phytotoxicity General: 4%
  Phytotoxicity Stunting: 9%
Kale 'Red Russian' [1]; [6]
  Phytotoxicity Chlorosis: 13%
  Phytotoxicity General: 5%
  Phytotoxicity Stunting: 10%
Kale 'Red Russian' [1]; [7]
  Phytotoxicity Chlorosis: 6%
  Phytotoxicity General: 4%
  Phytotoxicity Stunting: 8%
Kale 'Red Russian' [1]; [8]
  Phytotoxicity Chlorosis: 3%
  Phytotoxicity General: 3%
  Phytotoxicity Stunting: 6%
Kale ‘Red Russian’; [9]
  Yield Fresh weight: 108.2 grams
Kale ‘Red Russian’; rates g ai/ha: chlropyrifos 3370, chlorothalonil 7900, paclobutrazol 9.7, mepiquat-chloride 37, + NIS 0.25 % v/v
  Yield Fresh weight: 110.1 grams
Basil ‘Genovese’; rates g ai/ha: chlropyrifos 1120, chlorothalonil 2630, paclobutrazol 3.23, mepiquat-chloride 12.3, Isoxadifen 8, Napthalic anhydride 264, + NIS 0.25 % v/v
  Yield Fresh weight: 24.6 grams
Basil ‘Genovese’; rates g ai/ha: chlropyrifos 3370, chlorothalonil 7900, paclobutrazol 9.7, mepiquat-chloride 37, Isoxadifen 16, Napthalic anhydride 527, + NIS 0.25 % v/v
  Yield Fresh weight: 32.9 grams
Basil 'Genovese'
  ADF, Percent Increase Over the Untreated Check (on a % dry matter basis): −12 % check
  Calcium, Percent Increase Over the Untreated Check (on a % dry matter basis): 7 % check
  Copper, Percent Increase Over the Untreated Check (on a % dry matter basis): 8 % check
  Iron, Percent Increase Over the Untreated Check (on a % dry matter basis): 108 % check
  Magnesium, Percent Increase Over the Untreated Check (on a % dry matter basis): 12 % check
  Manganese, Percent Increase Over the Untreated Check (on a % dry matter basis): 28 % check
  NDF, Percent Increase Over the Untreated Check (on a % dry matter basis): −8 % check
  Phosphorous, Percent Increase Over the Untreated Check (on a % dry matter basis): 11 % check
  Potassium, Percent Increase Over the Untreated Check (on a % dry matter basis): 12 % check
  Protein, Percent Increase Over the Untreated Check (on a % dry matter basis): 20 % check
  Sodium, Percent Increase Over the Untreated Check (on a % dry matter basis): 83 % check
  Soluble protein, Percent Increase Over the Untreated Check (on a % dry matter basis): 196 % check
  Zinc, Percent Increase Over the Untreated Check (on a % dry matter basis): 33 % check
Kale 'Red Russian' [2]; [10]
  Alanine, Percent Increase over the Untreated Check (on a % dry matter basis): −1 % check
  Aspartic acid, Percent Increase over the Untreated Check (on a % dry matter basis): 0 % check
  Cysteine, Percent Increase over the Untreated Check (on a % dry matter basis): 0 % check
  Glutamic acid, Percent Increase over the Untreated Check (on a % dry matter basis): 5 % check
  Glycine, Percent Increase over the Untreated Check (on a % dry matter basis): −4 % check
  Iso-leucine, Percent Increase over the Untreated Check (on a % dry matter basis): 0 % check
  Leucine, Percent Increase over the Untreated Check (on a % dry matter basis): 0 % check
  Lysine, Percent Increase over the Untreated Check (on a % dry matter basis): 6 % check
  Methionine, Percent Increase over the Untreated Check (on a % dry matter basis): 2 % check
  Proline, Percent Increase over the Untreated Check (on a % dry matter basis): −2 % check
  Threonine, Percent Increase over the Untreated Check (on a % dry matter basis): −2 % check
  Total Amino acids, Percent Increase over the Untreated Check (on a % dry matter basis): 1 % check
  Total Protein, Percent Increase over the Untreated Check (on a % dry matter basis): 3 % check
  Valine, Percent Increase over the Untreated Check (on a % dry matter basis): 1 % check
Kale 'Red Russian' [2]; [9]
  ADF, Percent Increase Over the Untreated Check (on a % dry matter basis): 1 % check
  Calcium, Percent Increase Over the Untreated Check (on a % dry matter basis): 18 % check
